# Reference: patent US11207277B2, “Methods of treating diseases associated with high-fat diet and vitamin a deficiency using retinoic acid receptor agonists” (Cornell University, priority 2013, dated 2021)
# “Also recorded” adds a separate entry of the source.
# Tests used:
# [1] = system: RARβ2; assay: Semi-quantitative PCR of pancreatic tissue, HF-fed mice; assay type: in vivo; settings: HF diet mice + AC261066 vs HF-vehicle
# Description: (§1) WT male C57/BL6 male mice were maintained on either a standard laboratory chow-fed diet (CFD) with 13% kcal fat, (diet #5053, Lab Diet, Inc, St. Louis, Mo.) or a high fat, western style diet (HFD) with 60% kcals from fat, (diet #58126, Lab Diet, Inc., St. Louis, Mo.) for 4 months. One month after the start of the high fat diet treatment, the high fat diet group was further split into 2 groups for 3 months: i) high fat diet and the drinking water containing 1% DMSO; ii) high fat diet and the drinking water containing 1.5 mg/100 ml AC261066, a specific RARβ agonist. Then mice were sacrificed by cervical dislocation. Blood and various tissue samples were harvested.
# (§2) Total RNA was extracted from mouse tissues using TRIzol reagent (Life technologies) and (1 μg) was used to synthesize cDNA. cDNA synthesis was performed at 42° C. for 1 h in a final volume of 20 μl using qScript (Quanta, MD). Semi-quantitative PCR were performed Taq DNA polymerase (Invitrogen, CA). Three step PCR was run as follows: 94° C. for 30 s, 58-64° C. for 45 s for primer annealing and 72° C. for 1 min for primer extension. The number of cycles for each primer pair for amplification in the linear range was determined experimentally. PCR products were resolved on 2% agarose gels and visualized by staining with ehtidium bromide. Primers for gene expression used were as follows: […]
# [2] = system: RARβ2; assay: Semi-quantitative PCR of pancreatic tissue, LRAT -/- vitamin A deficient mice; assay type: in vivo; settings: AC261066 for 8 weeks
# Method: FIG. 10. Gene expression of RARβ2 in pancreatic tissue from LRAT −/− vitamin A sufficient mice (VAS, normal control diet), LRAT −/− vitamin A deficient (VAD) mice, and LRAT −/− vitamin A deficient (VAD) mice treated with AC261066 for 8 weeks.
# as §2
# [3] = system: hepatic lipids; assay: Oil red O staining of liver sections; assay type: in vivo; settings: HF diet mice + AC261066 or CD1530; vs HF-vehicle
# Description: as §1
# (§3) Staining. Fresh mouse liver samples were embedded in optimal cutting temperature (OCT) medium and immediately frozen to −70 centigrade. Cryosections were then fixed in 4% formaldehyde for 1 hr at room temp. Slides were then rinsed three times in deionized water (dH2O) for 30 s, followed by treatment with 0.5% Triton X-100 in PBS for 5 min. Sections were then washed three times with PBS for 5 min. Samples were with incubated 2% bovine serum albumin (BSA) for 30 min at room temperature to block for unspecific antibody binding. Following blocking, sections were washed three times in PBS and incubated with mouse monoclonal antibody against α-SMA (1:500) (Dako, Inc) for 24 h at 4° C. […]
# [4] = system: TNF-α; assay: Semi-quantitative PCR liver, TNF-α; assay type: in vivo; settings: HF diet mice + AC261066 or CD1530
# Description: as §1
# as §2, with “resolved” for “resolved on”
# [5] = Serum triglyceride level measurement; assay type: in vivo, mice; settings: HF+AC261066 feeding vs CF controls
# Description: as §1
# The analysis of serum triglyceride levels was carried out using a bichromatic assay at the Laboratory of Comparative Pathology of the Memorial Sloan-Kettering Cancer Center. Chow-fed diet (CFD) n=2; high fat diet (HFD) n=3; high fat diet+AC261066 (HFDAC) n=5.
# [6] = system: 4-hydroxynonenal (4-HNE); assay: 4-HNE staining of liver sections; assay type: in vivo, mice; settings: HF diet + AC261066 vs HF diet group
# Description: as §1
# (§4) Paraffin-embedded sections (from two to four mice per group) were deparaffinized and rehydrated, and antigen retrieval was performed using an antigen unmasking solution (Vector Laboratories, H-3300). After quenching endogenous peroxidase with 3% H2O2, the tissue sections were blocked with the blocking reagent (from the M.O.M. kit from Vector Laboratories). Then, tissue sections were incubated with a 4-HNE antibody (1:400; mouse monoclonal antibody; Abcam, ab48506) overnight at 4° C. The sections were then incubated with secondary antibodies (1:200, anti-mouse IgG from the M.O.M kit). As a negative control, sections were stained without incubation with primary antibodies. […]
# [7] = system: renal lipid accumulation; assay: Hematoxylin and eosin staining of kidney sections; assay type: in vivo; settings: HF diet mice + AC261066 or CD1530; vs HF-vehicle
# Description: as §1
# At sacrifice, fresh mouse liver samples were fixed in 4% formaldehyde solution for 24 hr and embedded in paraffin blocks. Kidney paraffin sections were cut 5 microns thick and mounted on glass slides and stained with hematoxylin and eosin (H and E) using standard protocols.
# [8] = system: renal lipids; assay: Oil red O staining of kidney sections; assay type: in vivo; settings: HF diet mice + AC261066 vs HF vehicle
# [9] = system: α-SMA; assay: α-SMA immunofluorescence of kidney sections; assay type: in vivo; settings: HF diet mice + AC261066
# Description: as §1
# as §3, with “Fresh” for “Staining. Fresh”, “kidney” for “liver”
# [10] = system: 4-hydroxynonenal (4-HNE); assay: 4-HNE staining of kidney sections; assay type: in vivo, mice; settings: HF diet + AC261066 vs HF diet group
# Description: as §1, §4
compound,measurement,setting,value
CCCCOCCOc1nc(-c2ccc(C(=O)O)c(F)c2)sc1C [AC261066],RARβ (RARβ2) mRNA levels in pancreas,[1],increased the RAR 32 mRNA levels; also recorded: increased compared to HF-vehicle treated mice
same,RARβ2 mRNA levels in pancreas,[2],increased the RARβ2 mRNA levels
same,hepatic lipid accumulation (oil red O),[3],marked diminished hepatic lipid accumulation
same,mRNA levels of TNF-α in liver,[4],significantly diminish
same,serum triglyceride levels,[5],does not increase triglyceride levels; also recorded: does not affect serum triglyceride levels
same,4-HNE levels (oxidative stress) in liver,[6],reduces oxidative stress and ROS; also recorded: lower 4-HNE levels than those from the high fat diet group
same,renal lipid infiltration/accumulation (H and E),[7],diminished renal lipid accumulation; also recorded: markedly decreased renal lipid infiltration
same,kidney lipid accumulation (oil red O),[8],comparably less oil red o positive areas
same,α-SMA positive areas in kidney,[9],diminished expression of the fibrogenic protein alpha-SMA; also recorded: not observed
same,4-HNE levels (oxidative stress) in kidneys,[10],reduces oxidative stress (ROS); also recorded: lower 4-HNE levels than those from the high fat diet group
